Numbers after ± are expanded uncertainties.
Columns and labels:
[1] = xn = mol fraction of the nth substance listed; settings: x2 = 0; for mass density: 101 kPa, Liquid
[2] = for mass density: 101 kPa, Liquid

O [water] + CC(C)=O
[1], Pendant drop shape
Settings | surface tension liquid-gas [mN/m]
288.15 K | 73.49 ± 0.65
298.15 K | 71.98 ± 0.64
308.15 K | 70.41 ± 0.63
318.15 K | 68.78 ± 0.61
328.15 K | 67.09 ± 0.6

[1]
Settings | mass density [kg/m3]
323.15 K | 988.01 ± 0.15
328.15 K | 985.69 ± 0.15

CC(C)=O [acetone]
[2], Pendant drop shape
Settings | surface tension liquid-gas [mN/m]
288.15 K | 24.34 ± 0.31
298.15 K | 23.02 ± 0.31
308.15 K | 21.72 ± 0.3
318.15 K | 20.38 ± 0.29
328.15 K | 19.15 ± 0.29

[2]
Settings | mass density [kg/m3]
288.15 K | 795.65 ± 0.34
293.15 K | 790.04 ± 0.34
298.15 K | 784.33 ± 0.35
303.15 K | 778.57 ± 0.36
308.15 K | 772.76 ± 0.36
313.15 K | 766.91 ± 0.37
318.15 K | 760.99 ± 0.38
323.15 K | 755.02 ± 0.39
328.15 K | 748.98 ± 0.39

Cc1ccccc1 [toluene] + CC(C)=O
[1]
Settings | mass density [kg/m3] | surface tension liquid-gas [mN/m]
288.15 K | 871.41 ± 0.25 | 28.9 ± 0.6
293.15 K | 866.77 ± 0.26 | –
298.15 K | 862.12 ± 0.26 | 27.76 ± 0.59
303.15 K | 857.46 ± 0.27 | –
308.15 K | 852.78 ± 0.27 | 26.77 ± 0.57
313.15 K | 848.08 ± 0.28 | –
318.15 K | 843.37 ± 0.29 | 25.72 ± 0.55
323.15 K | 838.64 ± 0.29 | –
328.15 K | 833.9 ± 0.3 | 24.27 ± 0.53

Cc1ccccc1 [toluene]
[2]
Settings | mass density [kg/m3] | surface tension liquid-gas [mN/m]
288.15 K | 871.41 ± 0.25 | 28.9 ± 0.6
293.15 K | 866.77 ± 0.26 | –
298.15 K | 862.12 ± 0.26 | 27.76 ± 0.59
303.15 K | 857.46 ± 0.27 | –
308.15 K | 852.78 ± 0.27 | 26.77 ± 0.57
313.15 K | 848.08 ± 0.28 | –
318.15 K | 843.37 ± 0.29 | 25.72 ± 0.55
323.15 K | 838.64 ± 0.29 | –
328.15 K | 833.9 ± 0.3 | 24.27 ± 0.53
